Where two headings read alike, the source gives them in different places. Where a SMILES comes first, the peptide text is derived from it. Bridges are numbered along the chain shown (N, C = ends). [ ]: non-standard residue; d: D form. The star is where a group is joined. Ileψ(thiazoline)Cys = CC[C@H](C)[C@H](N)C1=N[C@H](C(=O)*)CS1; dOrn = NCCC[C@@H](N)C(=O)O
Legend:
[1] = tested on: mitochondrial membrane potential; assay type: cell-based, mouse; conditions: for ΔΨm (composite Z-score): normalized score vs mock-treated (DMSO) wells
reactive oxygen species = assay type: cell-based, mouse; conditions: for ROS (composite Z-score): normalized score vs mock-treated (DMSO) wells
OXPHOS gene expression = assay type: cell-based, mouse; conditions: for GE-HTS (composite Z-score): normalized score vs mock-treated (DMSO) wells
nuOXPHOS transcripts = assay type: cell-based, mouse; conditions: for nucOX (composite Z-score): normalized score vs mock-treated (DMSO) wells
mtOXPHOS transcripts = assay type: cell-based, mouse; conditions: for mitoOX (composite Z-score): normalized score vs mock-treated (DMSO) wells
cytochrome c = assay type: cell-based, mouse; conditions: for cyt c (composite Z-score): normalized score vs mock-treated (DMSO) wells
Chain of cytochrome c (P62897 whole entry): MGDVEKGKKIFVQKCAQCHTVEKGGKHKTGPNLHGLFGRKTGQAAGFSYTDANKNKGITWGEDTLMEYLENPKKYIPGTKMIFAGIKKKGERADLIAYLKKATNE

C2C12 myotubes = conditions: for Viability (composite Z-score): normalized score vs mock-treated (DMSO) wells
[2] = tested on: cellular dehydrogenase activity; conditions: for MTT (composite Z-score): normalized score vs mock-treated (DMSO) wells
[3] = normalized composite Z-score vs mock-treated (DMSO) wells, Conc 20 μM
[4] = composite Z-score vs mock-treated (DMSO) wells, Conc 20 μM
[5] = 20 μM, composite Z-score vs DMSO
[6] = composite Z-score vs mock-treated (DMSO) wells, concentration of each compound in μM
[7] = composite Z-score vs DMSO wells, Conc 20 μM

For `COc1cc(/C=C/CO)ccc1O` [coniferyl alcohol], the “ΔΨm (composite Z-score)” value ([1]; Conc 20 μM) was −0.719, the “ROS (composite Z-score)” value (reactive oxygen species; Conc 20 μM) was −0.450 and the “GE-HTS (composite Z-score)” value (OXPHOS gene expression; Conc 20 μM) was −0.593. For the same compound, the “nucOX (composite Z-score)” value (nuOXPHOS transcripts; Conc 20 μM) was −0.688, the “mitoOX (composite Z-score)” value (mtOXPHOS transcripts; Conc 20 μM) was −0.251 and the “cyt c (composite Z-score)” value (cytochrome c; Conc 20 μM) was 0.296. For the same compound, the “Viability (composite Z-score)” value (C2C12 myotubes; Conc 20 μM) was −0.771 and the “MTT (composite Z-score)” value ([2]; Conc 20 μM) was −1.094.
`O=C(Oc1cc(O)cc2c1C[C@@H](OC(=O)c1cc(O)c(O)c(O)c1)[C@@H](c1cc(O)c(O)c(O)c1)O2)c1cc(O)c(O)c(O)c1` [epigallocatechin 3,5-digallate] was tested, and the ΔΨm [1, 3] was −2.135, the ROS (reactive oxygen species; [3]) was 0.118 and the GE-HTS (OXPHOS gene expression; [3]) was −1.581. The nucOX (nuOXPHOS transcripts; [3]) was −1.625, the mitoOX (mtOXPHOS transcripts; [3]) was −1.133 and the cyt c (cytochrome c; [3]) was 1.040. The Viability (C2C12 myotubes; [3]) was 0.969 and the MTT [2, 3] was −1.667.
With `C[C@]12CC[C@H](O)C[C@H]1CC[C@@H]1[C@@H]2[C@H](O)C[C@]2(C)[C@@H](C3=CC(=O)OC3)CC[C@]12O` [sarmentogenin] the ΔΨm [1, 3] was −0.354, the ROS (reactive oxygen species; [3]) was −0.151 and the GE-HTS (OXPHOS gene expression; [3]) was 0.508. The nucOX (nuOXPHOS transcripts; [3]) was 0.691, the mitoOX (mtOXPHOS transcripts; [3]) was 0.077 and the cyt c (cytochrome c; [3]) was 0.614. It also gave a Viability (C2C12 myotubes; [3]) of 0.694 and an MTT [2, 3] of −0.191.
`Cc1c(O)c(C(=O)CC(C)C)c2oc3c(C(=O)CC(C)C)c(O)c(C)c(O)c3c2c1O` [rhodomyrtoxin] was tested, and the “ΔΨm (composite Z-score)” value ([1]; Conc 20 μM) was 2.834, the “ROS (composite Z-score)” value (reactive oxygen species; Conc 20 μM) was 0.397 and the “GE-HTS (composite Z-score)” value (OXPHOS gene expression; Conc 20 μM) was 0.357. The “nucOX (composite Z-score)” value (nuOXPHOS transcripts; Conc 20 μM) was 0.412, the “mitoOX (composite Z-score)” value (mtOXPHOS transcripts; Conc 20 μM) was 0.206 and the “cyt c (composite Z-score)” value (cytochrome c; Conc 20 μM) was −1.200. For the same compound, the “Viability (composite Z-score)” value (C2C12 myotubes; Conc 20 μM) was −0.636 and the “MTT (composite Z-score)” value ([2]; Conc 20 μM) was 2.413.
In the case of `CCC(C)C(=O)O[C@@H]1C[C@@]2(C)[C@H](c3ccoc3)OC(=O)CC23OC2(C)O[C@]14[C@]1(C)[C@@H](CC(=O)OC)C5(C)CC1(O)[C@](O)(C5OC(=O)C1(C)OC1C)[C@@H](OC(C)=O)[C@]34O2` (stereo partly drawn) [utilin], the ΔΨm [1, 4] is reported as −0.122, the ROS (reactive oxygen species; [4]) is reported as 0.482 and the GE-HTS (OXPHOS gene expression; [4]) is reported as −0.939. It also gave a nucOX (nuOXPHOS transcripts; [4]) of −0.861, a mitoOX (mtOXPHOS transcripts; [4]) of −0.975 and a cyt c (cytochrome c; [4]) of −0.038. The Viability (C2C12 myotubes; [4]) was 1.131 and the MTT [2, 4] was −1.571.
In the case of `CC(=O)O[C@@H]1CC2C(C)(C)C(=O)C3OC3[C@]2(C)C2CC[C@@]3(C)[C@H](c4ccoc4)OC(=O)C4OC43[C@@]21C` (stereo partly drawn) [epoxygedunin], the “ΔΨm (composite Z-score)” value ([1]; Conc 20 μM) is reported as 0.274, the “ROS (composite Z-score)” value (reactive oxygen species; Conc 20 μM) is reported as 0.409 and the “GE-HTS (composite Z-score)” value (OXPHOS gene expression; Conc 20 μM) is reported as −1.146. For the same compound, the “nucOX (composite Z-score)” value (nuOXPHOS transcripts; Conc 20 μM) was −1.130, the “mitoOX (composite Z-score)” value (mtOXPHOS transcripts; Conc 20 μM) was −1.005 and the “cyt c (composite Z-score)” value (cytochrome c; Conc 20 μM) was 0.248. The “Viability (composite Z-score)” value (C2C12 myotubes; Conc 20 μM) was 0.052 and the “MTT (composite Z-score)” value ([2]; Conc 20 μM) was −1.657.
With `CC[C@H](C)[C@H](N)C1=N[C@H](C(=O)N[C@@H](CC(C)C)C(=O)N[C@H](CCC(=O)O)C(=O)N[C@H](C(=O)N[C@H]2CCCCNC(=O)[C@H](CC(N)=O)NC(=O)[C@@H](CC(=O)O)NC(=O)[C@H](Cc3cnc[nH]3)NC(=O)[C@@H](Cc3ccccc3)NC(=O)[C@H]([C@@H](C)CC)NC(=O)[C@@H](CCCN)NC2=O)[C@@H](C)CC)CS1` [bacitracin] ({Ileψ(thiazoline)Cys}-L[dE]IK[dOrn]I[dF]H[dD]N; lactam 4-C) the ΔΨm [1, 5] was −0.113, the ΔΨm [1, 6] was −0.214 and the ROS (reactive oxygen species; [5]) was 1.177. For the same compound, the ROS (reactive oxygen species; [6]) was 0.105, the GE-HTS (OXPHOS gene expression; [5]) was 1.271 and the GE-HTS (OXPHOS gene expression; [6]) was −0.592. For the same compound, the nucOX (nuOXPHOS transcripts; [5]) was 1.374, the nucOX (nuOXPHOS transcripts; [6]) was −0.736 and the mitoOX (mtOXPHOS transcripts; [5]) was 0.798. It also gave a mitoOX (mtOXPHOS transcripts; [6]) of −0.189, a cyt c (cytochrome c; [5]) of 0.305 and a cyt c (cytochrome c; [6]) of −0.806. For the same compound, the Viability (C2C12 myotubes; [5]) was −0.312, the Viability (C2C12 myotubes; [6]) was −0.938 and the MTT [2, 5] was −0.826. The MTT [2, 6] was −0.310.
Compound `O=C1C(O)=C(O)C(=O)C(O)=C1O` [tetroquinone] has a ΔΨm [1, 7] of −0.424, an ROS (reactive oxygen species; [7]) of 0.638 and a GE-HTS (OXPHOS gene expression; [7]) of 0.067. It also gave a nucOX (nuOXPHOS transcripts; [7]) of 0.028, a mitoOX (mtOXPHOS transcripts; [7]) of 0.112 and a cyt c (cytochrome c; [7]) of 0.386. For the same compound, the Viability (C2C12 myotubes; [7]) was 0.088 and the MTT [2, 7] was −0.574.
methylorsellinic acid, ethyl ester showed a ΔΨm [1, 3] of −0.478, an ROS (reactive oxygen species; [3]) of −0.293 and a GE-HTS (OXPHOS gene expression; [3]) of −0.990. The nucOX (nuOXPHOS transcripts; [3]) was −1.040, the mitoOX (mtOXPHOS transcripts; [3]) was −0.770 and the cyt c (cytochrome c; [3]) was 0.754. It also gave a Viability (C2C12 myotubes; [3]) of 0.459 and an MTT [2, 3] of −0.661.
Compound `CC(=O)OC1CCC23CC1(C)CCC2C(C)(C)CC3OC(C)=O` (stereo not drawn) [clovanediol diacetate] has a ΔΨm [1, 3] of −0.599, an ROS (reactive oxygen species; [3]) of −0.318 and a GE-HTS (OXPHOS gene expression; [3]) of −0.020. It also gave a nucOX (nuOXPHOS transcripts; [3]) of 0.007, a mitoOX (mtOXPHOS transcripts; [3]) of −0.026 and a cyt c (cytochrome c; [3]) of 0.384. For the same compound, the Viability (C2C12 myotubes; [3]) was −0.119 and the MTT [2, 3] was −0.708.
Compound `C1COC(NC(C2CC2)C2CC2)=N1` [rilmenidine] has a ΔΨm [1] of −0.589, an ROS (reactive oxygen species) of 0.340 and a GE-HTS (OXPHOS gene expression) of 0.123. It also gave a nucOX (nuOXPHOS transcripts) of 0.319, a mitoOX (mtOXPHOS transcripts) of −0.313 and a cyt c (cytochrome c) of −0.042. The Viability (C2C12 myotubes) was 0.245 and the MTT [2] was 0.082.
